Results published in patent US20230133209A1, “CELL CLASSIFIER CIRCUITS AND METHODS OF USE THEREOF” (Eidgenössische Technische Hochschule Zürich, priority 2020, published 2023).

Tested on: HepG2-LC tumor-bearing mice
Assay: Antitumor efficacy in orthotopic HepG2 xenograft tumor model (bioluminescence tumor load, score sheet)
Assay type: in vivo, mouse
Procedure: Accordingly, this tumor-targeting program was evaluated in a pilot experiment in the context of orthotopic xenograft tumor model employing HepG2 cells in NSG mice. For the purpose of tumor establishment and tracking, HepG2 cells were stably modified with a lentiviral vector encoding an mCitrine fluorescent protein and firefly luciferase gene, and sorted for homogenous mCitrine expression. The tumors were established by splenic injection of 1M HepG2-LC cells and subsequent spleen dissection.
To gauge antitumor efficacy in vivo, AAV-DJ-HCC.V1-HSV-TK was delivered to HepG2 tumor bearing mice in two consecutive injections, three days apart. The four experimental groups (n=2 in this pilot) included the AAV-DJ-HCC.V1-HSV-TK in combination with GCV regimen (treatment arm), the same vector alone without GCV, sham injection supplemented with GCV regimen, and a sham PBS injection and no GCV.
Next, DJ-pseudotyped AAV vectors harboring the circuit were delivered systemically to HepG2-LC tumor-bearing mice (FIG. 7A). […]
Xenograft mouse liver mouse model: All animal procedures were performed in accordance with the Swiss federal law and institutional guidelines of Eidgenössische Technische Hochschule (ETH) Zurich, and approved by the animal ethics committee of canton Basel-Stadt. […] The tumor growth in mice was monitored by bioluminescence imaging 2-3 times per week (PhotonIMAGER RT, Biospace Lab). […]

In the case of `Nc1nc(O)c2ncn(COC(CO)CO)c2n1` [GCV, ganciclovir], the “tumor load over time (bioluminescence)” value (n=4 per arm, sham injection + GCV) is reported as “exponential tumor load increase over time” and the “antitumor activity (tumor load, bioluminescence)” value (pilot, n=2, sham injection supplemented with GCV regimen) is reported as “absent”.
